# Data reported in US11484539B2, “Compounds and their uses for alleviating menopause-associated symptoms” (Estetra SPRL, priority 2018, dated 2022).
# Marks after values point to notes of the source that are not given here.
# Key:
# post-menopausal women [1] = assay: Patients leaving the study; type: in vivo
# From the text: 3. Patients leaving the study
# post-menopausal women [2] = assay: Genito-urinary symptoms (GSM), VVA subject self-assessment; type: in vivo
# Protocol: Change from baseline to week 12 in the following GSM symptoms (VVA subject self-assessment) were recorded: • a) Vaginal dryness (sensation of dryness or burning in the vagina; none=0 mild=1, moderate=2 or severe=3):
# • b) Vaginal and/or vulvar irritation/itching (sensation of abnormal irritation or sensitive condition in the vagina; none=0, mild=1, moderate=2 or severe=3):
# • c) Dysuria (sensation of pain or difficulty in urinating; none=0, mild=1, moderate=2 or severe=3):
# • d) Vaginal pain associated with sexual activity (sensation of pain with sexual intercourse none=0, mild=1, moderate=2 or severe=3):
# • e) Vaginal bleeding associated with sexual activity (loss of blood with sexual intercourse; presence=1 vs. absence=0): […]
compound,measurement,setting,value
"C[C@]12CC[C@@H]3c4ccc(O)cc4CC[C@H]3[C@@H]1[C@@H](O)[C@@H](O)[C@@H]2O [E4, 1,3,5 (10)-estratrien-3,15alpha,16alpha,17beta-tetrol]",Number of patients leaving the study,post-menopausal women [1]; 2.5 mg,9
same,Number of patients leaving the study,post-menopausal women [1]; 5 mg,11
same,Number of patients leaving the study,post-menopausal women [1]; 10 mg,15
same,Number of patients leaving the study,post-menopausal women [1]; 15 mg,8
same,"Dysuria score (none=0, mild=1, moderate=2, severe=3), mean ± SD","post-menopausal women [2]; 2.5 mg, Baseline",0.2 ± 0.56
same,"Vaginal and/or vulvar irritation/itching score (none=0, mild=1, moderate=2, severe=3), mean ± SD","post-menopausal women [2]; 2.5 mg, Baseline",0.7 ± 0.96
same,"Vaginal bleeding associated with sexual activity, Absence (%)","post-menopausal women [2]; 2.5 mg, Baseline",100%
same,"Vaginal bleeding associated with sexual activity, Presence (%)","post-menopausal women [2]; 2.5 mg, Baseline",0%
same,"Vaginal dryness score (none=0, mild=1, moderate=2, severe=3), mean ± SD","post-menopausal women [2]; 2.5 mg, Baseline",1 ± 0.90
same,"Vaginal pain associated with sexual activity score (none=0, mild=1, moderate=2, severe=3), mean ± SD","post-menopausal women [2]; 2.5 mg, Baseline",0.6 ± 0.77
same,"Dysuria score (none=0, mild=1, moderate=2, severe=3), mean ± SD","post-menopausal women [2]; 2.5 mg, Week 12",0 ± 0.19
same,"Vaginal and/or vulvar irritation/itching score (none=0, mild=1, moderate=2, severe=3), mean ± SD","post-menopausal women [2]; 2.5 mg, Week 12",0.3 ± 0.60
same,"Vaginal bleeding associated with sexual activity, Absence (%)","post-menopausal women [2]; 2.5 mg, Week 12",100%
same,"Vaginal bleeding associated with sexual activity, Presence (%)","post-menopausal women [2]; 2.5 mg, Week 12",0%
same,"Vaginal dryness score (none=0, mild=1, moderate=2, severe=3), mean ± SD","post-menopausal women [2]; 2.5 mg, Week 12",0.5 ± 0.77
same,"Vaginal pain associated with sexual activity score (none=0, mild=1, moderate=2, severe=3), mean ± SD","post-menopausal women [2]; 2.5 mg, Week 12",0.3 ± 0.73
same,"Dysuria score (none=0, mild=1, moderate=2, severe=3), mean ± SD","post-menopausal women [2]; 5 mg, Baseline",0.2 ± 0.56
same,"Vaginal and/or vulvar irritation/itching score (none=0, mild=1, moderate=2, severe=3), mean ± SD","post-menopausal women [2]; 5 mg, Baseline",0.6 ± 0.90
same,"Vaginal bleeding associated with sexual activity, Presence (%)","post-menopausal women [2]; 5 mg, Baseline",6.4%
same,"Vaginal dryness score (none=0, mild=1, moderate=2, severe=3), mean ± SD","post-menopausal women [2]; 5 mg, Baseline",1.3 ± 0.94
same,"Vaginal pain associated with sexual activity score (none=0, mild=1, moderate=2, severe=3), mean ± SD","post-menopausal women [2]; 5 mg, Baseline",1 ± 1.07
same,"Vaginal bleeding associated with sexual activity, Absence (%)","post-menopausal women [2]; 5 mg, Baseline, some patients had no sexual activity",91.5^# %
same,"Dysuria score (none=0, mild=1, moderate=2, severe=3), mean ± SD","post-menopausal women [2]; 5 mg, Week 12",0 ± 0.20
same,"Vaginal and/or vulvar irritation/itching score (none=0, mild=1, moderate=2, severe=3), mean ± SD","post-menopausal women [2]; 5 mg, Week 12",0.4 ± 0.65
same,"Vaginal bleeding associated with sexual activity, Absence (%)","post-menopausal women [2]; 5 mg, Week 12",100%
same,"Vaginal bleeding associated with sexual activity, Presence (%)","post-menopausal women [2]; 5 mg, Week 12",0%
same,"Vaginal dryness score (none=0, mild=1, moderate=2, severe=3), mean ± SD","post-menopausal women [2]; 5 mg, Week 12",0.7 ± 0.86
same,"Vaginal pain associated with sexual activity score (none=0, mild=1, moderate=2, severe=3), mean ± SD","post-menopausal women [2]; 5 mg, Week 12",0.5 ± 0.78
same,"Dysuria score (none=0, mild=1, moderate=2, severe=3), mean ± SD","post-menopausal women [2]; 10 mg, Baseline",0.2 ± 0.58
same,"Vaginal and/or vulvar irritation/itching score (none=0, mild=1, moderate=2, severe=3), mean ± SD","post-menopausal women [2]; 10 mg, Baseline",0.7 ± 0.87
same,"Vaginal bleeding associated with sexual activity, Absence (%)","post-menopausal women [2]; 10 mg, Baseline",100%
same,"Vaginal bleeding associated with sexual activity, Presence (%)","post-menopausal women [2]; 10 mg, Baseline",0%
same,"Vaginal dryness score (none=0, mild=1, moderate=2, severe=3), mean ± SD","post-menopausal women [2]; 10 mg, Baseline",1 ± 0.93
same,"Vaginal pain associated with sexual activity score (none=0, mild=1, moderate=2, severe=3), mean ± SD","post-menopausal women [2]; 10 mg, Baseline",0.6 ± 0.77
same,"Dysuria score (none=0, mild=1, moderate=2, severe=3), mean ± SD","post-menopausal women [2]; 10 mg, Week 12",0.1 ± 0.23
same,"Vaginal and/or vulvar irritation/itching score (none=0, mild=1, moderate=2, severe=3), mean ± SD","post-menopausal women [2]; 10 mg, Week 12",0.3 ± 0.64
same,"Vaginal bleeding associated with sexual activity, Absence (%)","post-menopausal women [2]; 10 mg, Week 12",100%
same,"Vaginal bleeding associated with sexual activity, Presence (%)","post-menopausal women [2]; 10 mg, Week 12",0%
same,"Vaginal dryness score (none=0, mild=1, moderate=2, severe=3), mean ± SD","post-menopausal women [2]; 10 mg, Week 12",0.5 ± 0.75
same,"Vaginal pain associated with sexual activity score (none=0, mild=1, moderate=2, severe=3), mean ± SD","post-menopausal women [2]; 10 mg, Week 12",0.2 ± 0.36
same,"Dysuria score (none=0, mild=1, moderate=2, severe=3), mean ± SD","post-menopausal women [2]; 15 mg, Baseline",0.3 ± 0.58
same,"Vaginal and/or vulvar irritation/itching score (none=0, mild=1, moderate=2, severe=3), mean ± SD","post-menopausal women [2]; 15 mg, Baseline",0.5 ± 0.85
same,"Vaginal bleeding associated with sexual activity, Presence (%)","post-menopausal women [2]; 15 mg, Baseline",0%
same,"Vaginal dryness score (none=0, mild=1, moderate=2, severe=3), mean ± SD","post-menopausal women [2]; 15 mg, Baseline",1.1 ± 1.04
same,"Vaginal pain associated with sexual activity score (none=0, mild=1, moderate=2, severe=3), mean ± SD","post-menopausal women [2]; 15 mg, Baseline",0.7 ± 0.90
same,"Vaginal bleeding associated with sexual activity, Absence (%)","post-menopausal women [2]; 15 mg, Baseline, some patients had no sexual activity",97.9^# %
same,"Dysuria score (none=0, mild=1, moderate=2, severe=3), mean ± SD","post-menopausal women [2]; 15 mg, Week 12",0.3 ± 0.61
same,"Vaginal and/or vulvar irritation/itching score (none=0, mild=1, moderate=2, severe=3), mean ± SD","post-menopausal women [2]; 15 mg, Week 12",0.4 ± 0.70
same,"Vaginal bleeding associated with sexual activity, Absence (%)","post-menopausal women [2]; 15 mg, Week 12",95.8%
same,"Vaginal bleeding associated with sexual activity, Presence (%)","post-menopausal women [2]; 15 mg, Week 12",4.2%
same,"Vaginal dryness score (none=0, mild=1, moderate=2, severe=3), mean ± SD","post-menopausal women [2]; 15 mg, Week 12",0.5 ± 0.68
same,"Vaginal pain associated with sexual activity score (none=0, mild=1, moderate=2, severe=3), mean ± SD","post-menopausal women [2]; 15 mg, Week 12",0.3 ± 0.54
